Some test systems named below: UACC-257; CCRF-CEM; DLD-1; IGROV-1; U-251; HOP-62; RXF 393; LOX IMVI; NCI-H23; A498; EKVX; OVCAR-5; SR; BT-549; NCI/ADR-RES; MDA-MB-231; MCF7; T47D; MDA-N; Hs-578T.
What all share (experiment): DTP human tumour cell line panel, 48 h

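Cultured in 96-well plates, cells were exposed to test compound for 48 hours across five concentrations. GI50 = concentration required for 50% inhibition of growth.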 The source made the active and inactive calls. Cut-off read from the data, not from the text of the source: active = GI50 up to about 1.1 µM and inactive = higher.

Take `CCOC(=O)C1=C(C)C2C3C(=O)NC(=O)C3C1(C)C1C(=O)NC(=O)C21` (centres undefined): the GI50 in the test on UACC-257, in the test on CCRF-CEM, in the test with DLD-1, in the test with IGROV-1, in the test with U-251 and with HOP-62 was > 100 µM (inactive) throughout. In addition, the GI50 in the test on RXF 393, in the test with LOX IMVI, in the test on NCI-H23, with A498 and with EKVX was > 100 µM (inactive) in each case.

For the molecule `CCC(/C(=N\Nc1c(Cl)cc(Cl)cc1Cl)c1ccccc1)n1ccnc1C` (centres undefined), the GI50 (commonly the concentration at which growth is held to half of that of the control) in the test on UACC-257 is 14.5 µM (inactive); with OVCAR-5 it was 9.04 µM (inactive); in the test on CCRF-CEM, 13 µM (inactive); in the test on DLD-1 it was 4.22 µM (inactive); with IGROV-1, 11 µM (inactive); with U-251 it was 12.8 µM (inactive). The GI50 with RXF 393 is > 10 µM (inactive); in the test on LOX IMVI it was 12.2 µM (inactive); in the test on NCI-H23, 10.7 µM (inactive); in the test with A498, 14.2 µM (inactive); with EKVX, 17.3 µM (inactive).

As for `COC(=O)[C@]1(C)CCC[C@]2(C)C3CC4OOC3(C=C4C(C)(C)O)CCC21` (some centres undefined), the GI50 in the test on UACC-257 is 80.5 µM (inactive); in the test with OVCAR-5 it was > 100 µM (inactive); in the test with CCRF-CEM it was 21.6 µM (inactive); in the test with DLD-1 it was 28.4 µM (inactive); with IGROV-1, 72.4 µM (inactive); in the test on U-251, > 100 µM (inactive). In addition, the GI50 in the test with HOP-62 is > 100 µM (inactive); in the test on LOX IMVI, 36.8 µM (inactive); with NCI-H23, 94 µM (inactive); with A498 it was 24.4 µM (inactive); in the test on EKVX it was 75.2 µM (inactive).

Regarding `COc1ccc(/C(=C\c2cc(OC)c(OC)c(OC)c2)C(=O)O)cc1`, the GI50 is 61 µM (inactive) with UACC-257; 32.5 µM (inactive) in the test on CCRF-CEM; 40.1 µM (inactive) with DLD-1; 38.8 µM (inactive) with SR; 48.4 µM (inactive) in the test on IGROV-1; 44.6 µM (inactive) in the test on U-251. Besides, the GI50 in the test on HOP-62 was 37.1 µM (inactive); with RXF 393, 18.8 µM (inactive); in the test on LOX IMVI it was 27.5 µM (inactive); in the test with A498 it was 15.9 µM (inactive); in the test on EKVX it was 57 µM (inactive).

On to `CCOC(=O)c1cc(=O)n(C)c(=O)n1C`, for which the GI50 with UACC-257, with OVCAR-5, with CCRF-CEM, in the test with DLD-1, in the test on IGROV-1 and with U-251 was > 100 µM (inactive) each time. The GI50 in the test with HOP-62, in the test with RXF 393, in the test on LOX IMVI, with NCI-H23, in the test with A498 and in the test on EKVX was > 100 µM (inactive) in each case.

With `NNC(=S)N/N=C/C(=C/Nc1ccccc1)[N+](=O)[O-]`, the GI50 was > 100 µM (inactive) in the test with UACC-257; > 100 µM (inactive) in the test with OVCAR-5; > 100 µM (inactive) with DLD-1; 1 µM (active) in the test with SR; > 100 µM (inactive) with IGROV-1; > 100 µM (inactive) in the test with HOP-62. For the same molecule, the GI50 in the test with RXF 393, with LOX IMVI, with NCI-H23 and in the test on EKVX was > 100 µM (inactive) throughout.

Regarding `N#CC(C(=N/NC(N)=S)/C(=N/NC(N)=S)C(C#N)c1ccc(Cl)cc1)c1ccc(Cl)cc1` (centres undefined), the GI50 in the test with UACC-257 is > 100 µM (inactive); with OVCAR-5 it was > 100 µM (inactive); in the test on CCRF-CEM, 22.6 µM (inactive); in the test with DLD-1, 34.1 µM (inactive); with IGROV-1, > 100 µM (inactive); in the test on U-251 it was > 100 µM (inactive). The GI50 is > 100 µM (inactive) in the test on HOP-62; 47.3 µM (inactive) with RXF 393; > 100 µM (inactive) with LOX IMVI; 65.5 µM (inactive) in the test on NCI-H23; > 100 µM (inactive) in the test on A498; > 100 µM (inactive) in the test with EKVX.

With `CC1=N/C(=C\c2ccc(/C=C3/N=C(C)OC3=O)cc2)C(=O)O1`, the GI50 was > 100 µM (inactive) with UACC-257; > 10 µM (inactive) with OVCAR-5; > 100 µM (inactive) in the test with CCRF-CEM; > 100 µM (inactive) in the test on DLD-1; > 100 µM (inactive) in the test on IGROV-1; > 100 µM (inactive) in the test with U-251. In addition, the GI50 in the test with HOP-62, with RXF 393, with LOX IMVI, with NCI-H23 and in the test on A498 was > 100 µM (inactive) in each case.

As for `CCCCCCCCCCCCCP(=O)(O)O`, the GI50 in the test with UACC-257 was > 100 µM (inactive); with OVCAR-5, > 100 µM (inactive); in the test with CCRF-CEM it was > 100 µM (inactive); in the test with DLD-1 it was > 100 µM (inactive); in the test on IGROV-1 it was > 100 µM (inactive); in the test on U-251, 45.2 µM (inactive). Also, the GI50 with HOP-62 is > 100 µM (inactive); in the test on RXF 393, 35.5 µM (inactive); in the test on LOX IMVI, > 100 µM (inactive); with NCI-H23, > 100 µM (inactive); in the test with A498 it was > 100 µM (inactive); with EKVX, > 100 µM (inactive).

Turning to `O=C1/C(=C(/Br)I)c2ccccc2-c2ccccc21`, the GI50 is 6.01 µM (inactive) in the test with UACC-257; 7.03 µM (inactive) in the test on BT-549; 11.9 µM (inactive) with OVCAR-5; 2.16 µM (inactive) with CCRF-CEM; 2.92 µM (inactive) in the test on SR; 13.2 µM (inactive) in the test on IGROV-1. The GI50 in the test on U-251 is 12.6 µM (inactive); with HOP-62, 17.1 µM (inactive); in the test on RXF 393 it was 3.21 µM (inactive); with LOX IMVI it was 5.3 µM (inactive); with NCI/ADR-RES it was 9.02 µM (inactive); with NCI-H23 it was 18.1 µM (inactive). The GI50 in the test on A498 is 16.4 µM (inactive); with MDA-MB-231, 6.14 µM (inactive); with MCF7 it was 8.85 µM (inactive); in the test with EKVX it was 18 µM (inactive); in the test with T47D it was 11.9 µM (inactive); with MDA-N it was 2.95 µM (inactive). Moreover, the GI50 with Hs-578T is 28.6 µM (inactive).

`Cc1ccc(S(=O)(=O)N/N=C/C(Br)=C(/Br)C(=O)O)cc1`: the GI50 in the test on UACC-257 was 12.1 µM (inactive); in the test with BT-549, 6.55 µM (inactive); with OVCAR-5, > 19.7 µM (inactive); with CCRF-CEM it was 1.42 µM (inactive); in the test on SR it was 0.321 µM (active); in the test on IGROV-1, 16.1 µM (inactive). The GI50 in the test with U-251 is 4.22 µM (inactive); in the test on HOP-62, 16.2 µM (inactive); with RXF 393, 2.21 µM (inactive); with LOX IMVI it was 3.03 µM (inactive); in the test on NCI/ADR-RES it was 3.69 µM (inactive); with NCI-H23, 6.1 µM (inactive). Further, the GI50 in the test with A498 was 16.4 µM (inactive); in the test on MDA-MB-231, 14.8 µM (inactive); with MCF7, 7.41 µM (inactive); in the test with EKVX it was 10.2 µM (inactive); in the test with T47D, 4.57 µM (inactive); in the test on MDA-N, 4.69 µM (inactive). Further, the GI50 in the test with Hs-578T is 10.7 µM (inactive).

For `O=C(O)CCNCC(=O)O`, the GI50 in the test with UACC-257, with BT-549, in the test on OVCAR-5, in the test with CCRF-CEM, in the test on SR and in the test on IGROV-1 was > 100 µM (inactive) throughout. Further, the GI50 in the test on U-251, in the test with HOP-62, with RXF 393, in the test with LOX IMVI, with NCI/ADR-RES and with NCI-H23 was > 100 µM (inactive) throughout. Further, the GI50 in the test on A498, in the test on MDA-MB-231, in the test with MCF7, in the test with EKVX, with T47D and in the test with MDA-N was > 100 µM (inactive) each time. In addition, in the test with Hs-578T, the GI50 was > 100 µM (inactive).

For `Nc1ncnc2c1ncn2C1OC(CO)C(O)C1NS(=O)(=O)c1ccccc1` (centres undefined), the GI50 in the test on UACC-257, with BT-549, in the test with OVCAR-5, with CCRF-CEM, in the test on SR and in the test on IGROV-1 was > 100 µM (inactive) in each case. Also, the GI50 in the test with U-251, with HOP-62, with RXF 393, with LOX IMVI, in the test with NCI/ADR-RES and with NCI-H23 was > 100 µM (inactive) each time. In addition, the GI50 in the test with A498, with MDA-MB-231, in the test with MCF7, in the test with EKVX, with T47D and in the test with MDA-N was > 100 µM (inactive) each time. The GI50 with Hs-578T was > 100 µM (inactive).

Take `Cc1cccc(C2=NC(C)(C)C(C)(C)N=C2c2cccc(C)n2)n1`: the GI50 in the test on UACC-257 was 45.4 µM (inactive); with OVCAR-5, > 100 µM (inactive); in the test with CCRF-CEM, 71 µM (inactive); in the test on DLD-1, 98.6 µM (inactive); with IGROV-1 it was 38.5 µM (inactive); in the test with U-251 it was > 100 µM (inactive). Moreover, the GI50 in the test on HOP-62 was > 100 µM (inactive); with RXF 393 it was > 100 µM (inactive); in the test with LOX IMVI it was > 100 µM (inactive); in the test on NCI-H23, 30.1 µM (inactive); with A498, > 100 µM (inactive); with EKVX, > 100 µM (inactive).

Values taken from ChEMBL document CHEMBL1201862, “PubChem BioAssay data set” (2004).
